Data set [1] relates to MIA PaCa-2. The experiment in a line: Cytotoxicity against human MIA PaCa-2 cells assessed as reduction in cell viability pretreated with glycine for 30 mins by MTT assay. It is filed as functional, cell-based.
Data set [2] has as its system ASPC1. The experiment in a line: Cytotoxicity against human ASPC1 cells assessed as reduction in cell viability pretreated with glycine for 30 mins by MTT assay. Type of data set: functional, cell-based. (In general: Tetrazolium assays rely on reduction of a dye to a coloured formazan, in cell work by metabolically active cells.)
In data set [3] the test system is MIA PaCa-2. The experiment in a line: Cytotoxicity against human MIA PaCa-2 cells assessed as reduction in cell viability by MTT assay. It is filed as functional, cell-based.
Data set [4] concerns ASPC1. The experiment in a line: Cytotoxicity against human ASPC1 cells assessed as reduction in cell viability by MTT assay. Type of data set: functional, cell-based.
Data set [5] in a line: Cytotoxicity against human HPDE cells assessed as reduction in cell viability by MTT assay. Type of data set: cell-based.
Data set [6] can be described thus: Drug uptake in human MIA PaCa-2 cells in presence of glutamate. It is filed as ADME, cell-based.
Data set [7] is described as follows: Drug uptake in human ASPC1 cells in presence of glutamate. Type of data set: ADME, cell-based.
Data set [8] in a line: Drug uptake in human ASPC1 cells in presence of lysine. It is filed as ADME, cell-based.
Data set [9] can be described thus: Drug uptake in human MIA PaCa-2 cells in presence of lysine. Type of data set: ADME, cell-based.
Data set [10] can be described thus: Drug uptake in human MIA PaCa-2 cells in presence of glycine. Type of data set: ADME, cell-based.
Data set [11] in a line: Drug uptake in human ASPC1 cells in presence of glycine. It is filed as ADME, cell-based.
Data set [12] can be described thus: Drug uptake in human MIA PaCa-2 cells in presence of alpha-Methyl-D,L-tryptophan. Type of data set: ADME, cell-based.
Data set [13] can be described thus: Drug uptake in human ASPC1 cells in presence of alpha-Methyl-D,L-tryptophan. It is filed as ADME, cell-based.
A short description of data set [14]: Drug uptake in human MIA PaCa-2 cells assessed as Vmax measured at 10 mins. The following applies: mia paca-2, 10 min. Type of data set: ADME, cell-based.
Data set [15] can be described thus: Drug uptake in human MIA PaCa-2 cells assessed as Km. Type of data set: ADME, cell-based.
Data set [16] is described as follows: Drug uptake in human ASPC1 cells assessed as Vmax measured at 10 mins. It is filed as ADME, cell-based. Conditions: aspc1, 10 min.
A short description of data set [17]: Drug uptake in human ASPC1 cells assessed as Km. Type of data set: ADME, cell-based.
Data set [18] is described as follows: Drug uptake in human HPDE cells. Type of data set: ADME, cell-based.
Data set [19] is described as follows: Drug uptake in human ASPC1 cells. Type of data set: ADME, cell-based.
A short description of data set [20]: Drug uptake in human MIA PaCa-2 cells. It is filed as ADME, cell-based.
A short description of data set [21]: Stability in rat liver homogenate assessed as half life. Type of data set: ADME, tissue-based.
Data set [22] in a line: Stability in human ASPC1 cells homogenate assessed as half life. It is filed as ADME, cell-based. Conditions: ASPC1 cell homogenate.
Data set [23] is described as follows: Stability in rat plasma assessed as half life. Type of data set: ADME, cell-free.

The source made the active and inactive calls.

The record followed here is ChEMBL document CHEMBL4715881, “ATB-targeted delivery of triptolide prodrugs for safer and more effective pancreatic cancer therapy” (Bioorg Med Chem Lett, 2021).

For orientation: Km means the substrate concentration at which the rate is half of its maximum. As usually defined, the half-life is the time needed for the level to fall by half in the phase considered.

As for `CC(C)[C@H](N)C(=O)O[C@@H]1[C@@]2(C(C)C)O[C@H]2[C@@H]2O[C@]23[C@]12O[C@H]2C[C@H]1C2=C(CC[C@@]13C)C(=O)OC2`, the result in the data set on MIA PaCa-2 [1] and in the data set on ASPC1 [2] was inactive. Further, the result in the data set on MIA PaCa-2 [3] and in the data set on ASPC1 [4] was Active. Besides, the Activity result in data set [5] was “Non-Toxic”. Further, the Drug uptake entry in data set [6] is recorded as “Active”; in [7], “Active”; in data set [8] it was “Not Active”; in data set [9], “Not Active”; in [10] it was “Not Active”; in [11], “Not Active”. The Drug uptake entry in [12] is “Not Active”; in data set [13], “Not Active”; in [18] it was “Not Active”; in [19], “Active”; in [20] it was “Active”. Also, the Vmax in data set [14] amounted to 4.132 nmol/mg; in data set [16], 4.391 nmol/mg. The figures for the Michaelis constant (Km) in data set [15] and in data set [17] were 112 µM and 130 µM, respectively. Further, the values for the half-life in data set [21], in [22] and in data set [23] were 6 h, 8 h and above 10 h, respectively.
`CC(C)[C@]12O[C@H]1[C@@H]1O[C@]13[C@]1(O[C@H]1C[C@H]1C4=C(CC[C@@]13C)C(=O)OC4)[C@@H]2OC(=O)[C@@H](N)Cc1c[nH]c2ccccc12`: the outcome in the data set on MIA PaCa-2 [1] and in the data set with ASPC1 [2] was inactive. Also, the result with MIA PaCa-2 [3] and in the data set with ASPC1 [4] was Active. Further, the Activity entry in data set [5] is “Non-Toxic”. The Drug uptake entry in data set [6] is listed as “Active”; in data set [7], “Active”; in [8] it was “Not Active”; in data set [9] it was “Not Active”; in data set [10] it was “Not Active”; in data set [11], “Not Active”. The Drug uptake entry was “Not Active” in data set [12]; “Not Active” in data set [13]; “Not Active” in data set [18]; “Active” in data set [19]; “Active” in data set [20]. Further, the results for the Vmax in [14] and in data set [16] were 5.072 nmol/mg and 5.874 nmol/mg, respectively. The results for the Michaelis constant (Km) in [15] and in data set [17] were 96 µM and 105 µM, respectively. Also, the half-life in [21] is 6 h; in data set [22], 8 h; in [23], above 10 h.
With `CC(C)[C@]12O[C@H]1[C@@H]1O[C@]13[C@]1(O[C@H]1C[C@H]1C4=C(CC[C@@]13C)C(=O)OC4)[C@@H]2OC(=O)[C@@H](N)CCCCN`, the result in the data set with MIA PaCa-2 [1] and in the data set with ASPC1 [2] was inactive. For the same compound, the result in the data set with MIA PaCa-2 [3] and with ASPC1 [4] was Active. Besides, the Activity entry in data set [5] is “Non-Toxic”. Further, the Drug uptake entry in data set [6] was “Active”; in data set [7] it was “Active”; in data set [8], “Not Active”; in data set [9], “Not Active”; in data set [10], “Not Active”; in data set [11], “Not Active”. In addition, the Drug uptake entry is “Not Active” in [12]; “Not Active” in data set [13]; “Not Active” in [18]; “Active” in [19]; “Active” in [20]. For the same compound, the values for the Vmax in data set [14] and in data set [16] were 3.516 nmol/mg and 3.41 nmol/mg, respectively. Besides, the Km in data set [15] stood at 124 µM; in data set [17] it was 121 µM. Moreover, the half-life is 6 h in [21], 8 h in [22] and above 10 h in data set [23].
In the case of `CC(C)[C@]12O[C@H]1[C@@H]1O[C@]13[C@]1(O[C@H]1C[C@H]1C4=C(CC[C@@]13C)C(=O)OC4)[C@@H]2O` [TRIPTOLIDE], the result in the data set on MIA PaCa-2 [3] and in the data set with ASPC1 [4] was Active. In addition, the Activity entry in [5] is “Toxic”.
